Measured values taken from patent US12516058B2, “Small-molecule compounds for controlling endosomal toll-like receptors and therapeutic agent for autoimmune diseases using same” (priority 2020, dated 2026).
Entries after “also recorded” stand apart in the source; their conditions may differ.

Biological target: T1, TLR3 (Mus musculus, UniProt Q99MB1)
T1 construct: RAW 264.7 cells were pretreated with each candidate compound for 1 hour; endogenous in cells; host or cells: RAW 264.7
T1 sequence (Q99MB1 26-905): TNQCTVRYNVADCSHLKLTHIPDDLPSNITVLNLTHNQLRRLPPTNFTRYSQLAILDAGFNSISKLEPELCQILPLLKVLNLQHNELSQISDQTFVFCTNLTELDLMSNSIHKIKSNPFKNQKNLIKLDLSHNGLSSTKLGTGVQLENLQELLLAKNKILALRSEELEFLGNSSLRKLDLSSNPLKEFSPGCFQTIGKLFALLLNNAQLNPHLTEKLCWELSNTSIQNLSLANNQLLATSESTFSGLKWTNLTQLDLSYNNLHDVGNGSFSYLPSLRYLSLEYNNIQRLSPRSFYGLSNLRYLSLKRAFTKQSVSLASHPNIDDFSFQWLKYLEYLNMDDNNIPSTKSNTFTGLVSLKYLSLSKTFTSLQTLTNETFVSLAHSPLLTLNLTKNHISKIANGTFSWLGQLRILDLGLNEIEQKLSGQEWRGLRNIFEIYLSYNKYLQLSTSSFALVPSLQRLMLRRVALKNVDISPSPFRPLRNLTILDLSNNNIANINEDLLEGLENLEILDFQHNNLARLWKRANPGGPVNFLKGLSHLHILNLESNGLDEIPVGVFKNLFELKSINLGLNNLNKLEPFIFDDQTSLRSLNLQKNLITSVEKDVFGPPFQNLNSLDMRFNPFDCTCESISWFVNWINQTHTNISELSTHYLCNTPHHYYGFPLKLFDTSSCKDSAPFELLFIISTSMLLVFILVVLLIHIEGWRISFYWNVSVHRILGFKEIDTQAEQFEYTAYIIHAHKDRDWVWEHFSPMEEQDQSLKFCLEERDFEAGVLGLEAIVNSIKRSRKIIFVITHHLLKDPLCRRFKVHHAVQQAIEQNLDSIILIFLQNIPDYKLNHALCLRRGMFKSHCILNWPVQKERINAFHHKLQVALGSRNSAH
Test: TNF-α secretion ELISA after TLR3 agonist poly I:C in RAW 264.7 cells
Type: cell-based
Conditions: SK01, SK16; RAW 264.7 cells, poly I:C 24 h
Experimental: In order to determine the inhibitory activities of the test-ligand, RAW 264.7 cells were pretreated with each candidate compound for 1 hour, then treated with Pam3CSK4 (synthetic triacyl lipopeptide; TLR1/2, Invitrogen), FSL-1 (synthetic diacyl lipoprotein, TLR2/6, 100 ng/ml), lipopolysaccharide (LPS, TLR4, Sigma Aldrich), imiquimod (IMQ, TLR7, Invitrogen), and ODN2395 (type C CpG repeat motif DNA oligo(5′-[…]-3), TLR9, Bioneer) ligand for 4 hours, and treated with poly I:C (I:C repeat motif double-stranded RNA, TLR3, Invitrogen) and TL8-506 (TLR8, Invitrogen) showing delayed reactivity for 24 hours. After activation of TLR, the supernatant was diluted in an appropriate ratio so as to measure within the standard dose range, transferred to a pre-coated 96-well assay plate, and then treated with mouse TNF-alpha secretion level in accordance with the manufacturer's instructions using a mouse-TNF-alpha ELISA-kit (Invitrogen).
In order to determine the inhibitory activities of SK41, SK50, SK58 and SK64 on various TLR signaling pathways, RAW 264.7 cells were cultured along with each compound and then stimulated with different TLR agonists. The TLR agonists used herein were Pam3CSK4 (TLR1/2), FSL-1 (TLR2/6), LPS (TLR4) and FLA-ST (TLR5) as cell surface TLRs, and poly I:C (TLR3) and TL8-506 (TLR8) as endosomal TLRs.

SMILES	inhibition of the function of endosomal TLR3
Cc1c(C)n(CCN(C)C)c2nc3c(c(N)c12)CCCCC3 [SK01, 1-(2-(dimethylamino)ethyl)-2,3-dimethyl-1,5,6,7,8,9-hexahydrocyclohepta[b]pyrrolo[3,2-e]pyridin-4-amine]	specifically inhibit
Cc1c(C)n(CCCN(C)C)c2nc3c(c(N)c12)CCCCC3 [SK16, 1-(3-(dimethylamino)propyl)-2,3-dimethyl-1,5,6,7,8,9-hexahydrocyclohepta[b]pyrrolo[3,2-e]pyridin-4-amine]	specifically inhibit

Same assay, conditions: SK41, SK50, SK58, SK64; poly I:C

SMILES	inhibitory activity against endosomal TLR3 (TNF-α secretion)
Cc1cc2c(N)c3c(nc2n1CCCN(C)C)CCCCCC3 [SK41, 1-(3-(dimethylamino)propyl)-2-methyl-5,6,7,8,9,10-hexahydro-1H-cycloocta[b]pyrrolo[3,2-e]pyridin-4-amine]	strong inhibitory activity; also recorded: specific inhibitory activities
COc1ccc2c(c1)c1c(N)c3c(nc1n2CCCN(C)C)CCCC3 [SK50, 6-(3-(dimethylamino)propyl)-9-methoxy-2,3,4,6-tetrahydro-1H-indolo[2,3-b]quinolin-11-amine]	strong inhibitory activity; also recorded: specific inhibitory activities
Cc1ccc2c(c1)c1c(N)c3c(nc1n2CCCN(C)C)CCCC3 [SK58, 6-(3-(dimethylamino)propyl)-9-methyl-2,3,4,6-tetrahydro-1H-indolo[2,3-b]quinolin-11-amine]	strong inhibitory activity; also recorded: specific inhibitory activities
COC(=O)c1ccc2c(c1)c1c(N)c3c(nc1n2CCCN(C)C)CCCC3 [SK64, Methyl 11-amino-6-(3-(dimethylamino)propyl)-2,3,4,6-tetrahydro-1H-indolo[2,3-b]quinolin-9-carboxylate]	strong inhibitory activity; also recorded: specific inhibitory activities
